Columns and labels:
MC38 tumor = experiment: Anti-tumor activity and survival in MC38 mouse tumor model; format: in vivo; settings: for inhibitory activity against MC38 tumor growth: MC38 mice, i.p., antibody drugs 150 μg per mouse, D18 25 μg per mouse, schedule Table 1
Source text: (§1) A. Treatment with ADC HE-S2, single administration of anti-PD-L1 antibody, D18, or anti-PD-L1 THIOMAB, and anti-PD-L1 antibody/D18 combined administration for inhibitory activity against mouse MC38 tumor growth. B. Whole animal survival study. The ordinate of the curve represents the percentage of tumor-bearing mice that remained alive after different days, and the abscissa thereof represents the number of experimental days. C. Treatment with ADC HE-S2, single administration of anti-PD-L1 antibody, D18, or anti-PD-L1 THIOMAB, and anti-PD-L1 antibody/D18 combined administration for inhibitory activity against mouse MC38 tumor growth. Student's t test was used to compare significant differences between the groups, and p<0.001 is represented by ***.
To verify the anti-cancer activity of ADC HE-S2, the inventors first made a mouse model with MC38. After the tumor was loaded, a visible tumor could be observed on the mouse surface for about one week. When the mean tumor tissue volume of the mice reached 100 mm^3, the mice were randomly grouped as follows according to the final type of drug administered: IgG isotype control antibody group (abbreviated as IgG), anti-PD-L1 antibody group (anti-PD-L1), anti-PD-L1 THIOMAB group (Thiomab), D18 group (D18), D18/anti-PD-L1 antibody combination treatment group (anti-PD-L1 & D18), and ADC HE-S2 group (ADC HE-S2), with 7-8 mice per group. The IgG isotype control antibody group, the anti-PD-L1 antibody (i.e., avelumab as described in Example 2) group, and the anti-PD-L1 THIOMAB (i.e., mutant antibody prepared in Example 2) group were administered twice a week via intraperitoneal injection of 150 μg per mouse for each time. The D18 group was administered twice a week via intraperitoneal injection of 25 μg per mouse for each time. In the D18/anti-PD-L1 antibody combination treatment group, the anti-PD-L1 antibody was dosed twice a week, 150 μg per mouse for each time; the D18 was dosed […], 25 μg per mouse for each time; in the ADC HE-S2 group, ADC HE-S2 was dosed once a week via intraperitoneal injection of 150 μg per mouse for each time; the anti-PD-L1 antibody was dosed once a week, staggered from the administration of the ADC, via intraperitoneal injection of 150 μg per mouse for each time.
(§2) Dosage: Antibody drugs, administered 150 μg per mouse for each time, and D18, administered 25 μg per mouse for each time. - means no administration on the day. * Only mice with MC38 tumor model were allowed to be administered until the 24th day, and mice with B16 tumor model were no longer administered after the 21st day.

B16 melanoma = experiment: Anti-tumor activity in B16 melanoma mouse model; format: in vivo; settings: B16 mice, i.p.; antibody drugs 150 μg, D18 25 μg per mouse; dosing to day 21
Source text: as §1
B16 melanoma is a tumor with low PD-L1 level and certain drug resistance to PD-1/PD-L1 blocking treatment. As a result, as expected by the inventors, the inhibitory effect of each drug on B16 melanoma was reduced relative to the MC38 tumor.
as §2

[1] = Effect of drug treatment on body weight of healthy mice; format: in vivo, mouse; settings: antibody drugs 150 μg, D18 25 μg per dose
Experimental: Mice were treated with ADC HE-S2, anti-PD-L1 antibody+D18 in combination, anti-PD-L1 antibody alone, D18 alone, and isotype IgG, and their body weight variations were recorded. The time of administration for each drug is indicated by the arrow. Student's t test was used to compare significance differences between groups, wherein p<0.05 is represented by *. p<0.01 is represented by **, and no significance difference is represented by ns.
Then, the inventors examined the effect of each group of drug treatment on the body weight of mice in a mouse model to determine the toxic and side effects of the drugs used, and the results are shown in FIG. 17. Healthy mice were divided into an ADC group, an anti-PD-L1 antibody+D18 group, an anti-PD-L1 antibody group, a D18 group and an IgG group according to the administration, with 5 mice per group. The mode and dose of administration for each group of mice were the same as those in the mouse tumor model experiment: in the ADC group, ADC HE-S2 was dosed once a week, and the anti-PD-L1 antibody was […], 150 μg for each time; D18 was dosed once a week, 25 μg for each time; the anti-PD-L1 antibody and the IgG isotype antibody were dosed twice a week, 150 μg for each time.

murine PD-L1 = murine PD-L1 (Mus musculus, UniProt Q9EP73); settings: Deng et al., 2016; cited from earlier work
Sequence of murine PD-L1 (Q9EP73 19-290): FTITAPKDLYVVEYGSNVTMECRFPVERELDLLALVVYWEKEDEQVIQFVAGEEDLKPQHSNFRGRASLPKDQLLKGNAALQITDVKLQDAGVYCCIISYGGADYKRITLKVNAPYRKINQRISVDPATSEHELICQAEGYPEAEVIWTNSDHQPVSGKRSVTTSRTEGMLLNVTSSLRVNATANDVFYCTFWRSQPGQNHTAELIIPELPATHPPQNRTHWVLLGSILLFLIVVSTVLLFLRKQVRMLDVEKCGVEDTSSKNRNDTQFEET

Compound | inhibitory activity against MC38 tumor growth (MC38 tumor) | survival rate of mice (MC38 tumor; until day 70) | inhibitory effect on B16 melanoma (B16 melanoma) | body weight change of the mice after administration [1] | cross-reaction with murine PD-L1 (murine PD-L1)
CCCCNc1nc(N)nc2ccc(Cc3ccc(CN(C)C)cc3)nc12 [D18, N^4-butyl-6-(4-((dimethylamino)methyl)benzyl)pyridine[3,2-d]pyriproxyfen-2,4-diamine] | slightly superior to the efficacy of the IgG isotype antibody | 1/8 | almost comparative to that of the IgG isotype antibody | some decreases in body weight | –
anti-PD-L1 antibody: fully humanized IgG1 type monoclonal anti-PD-L1 antibody drug avelumab [reference compound] | slightly superior to the efficacy of the IgG isotype antibody | – | almost comparative to that of the IgG isotype antibody | almost consistent with that of the blank control IgG group | cross-react with murine PD-L1
